Data set [1] addresses T1, Branched-chain-amino-acid aminotransferase, mitochondrial (Homo sapiens, UniProt O15382).
T1 sequence (O15382 whole entry): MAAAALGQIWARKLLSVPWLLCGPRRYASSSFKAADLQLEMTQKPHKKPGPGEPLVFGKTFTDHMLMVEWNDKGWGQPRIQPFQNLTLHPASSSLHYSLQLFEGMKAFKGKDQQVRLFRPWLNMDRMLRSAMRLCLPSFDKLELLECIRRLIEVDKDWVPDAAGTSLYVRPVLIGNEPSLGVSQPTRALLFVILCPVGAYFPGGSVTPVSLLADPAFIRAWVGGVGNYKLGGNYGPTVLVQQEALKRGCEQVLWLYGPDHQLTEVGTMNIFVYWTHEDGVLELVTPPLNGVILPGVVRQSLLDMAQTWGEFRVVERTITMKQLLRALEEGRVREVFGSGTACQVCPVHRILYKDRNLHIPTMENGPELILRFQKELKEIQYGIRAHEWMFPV
Put plainly: Inhibition of human BCATm incubated for 10 mins by Amplex red- based fluorescence analysis.

Data set [2] in a line: Solubility of compound in PBS at pH 7.4 after 1 hr by chemiluminiscent nitrogen detection method. Format: physicochemical.

Values after ≈ are worked out from the molar mass of the structure shown.

The text below walks through data of ChEMBL document CHEMBL3792277, “Structurally Diverse Mitochondrial Branched Chain Aminotransferase (BCATm) Leads with Varying Binding Modes Identified by Fragment Screening” (J Med Chem, 2016).

Usually IC50 stands for the concentration needed to halve the response being measured. Read a high IC50 as weaker potency in that assay. By solubility is commonly meant how much of the substance goes into solution per volume. A high value points to much dissolved substance.

Molecule `Cc1ccccc1NC(=O)c1sc2ncnc(O)c2c1C` had an IC50 in data set [1] of 50.1 µM. In data set [1], `Cc1c(C(=O)Nc2ccccc2)sc2ncnc(O)c12` showed an IC50 of 7.94 µM. On to `Cc1c(C(=O)O)sc2ncn(C)c(=O)c12`, for which the IC50 in data set [1] is 63.1 µM. With `NC(=O)c1ccc(N2CCc3ccccc3C2=O)cc1`, half-maximal inhibition in data set [1] (IC50) was put at 15.8 µM. Also, the concentration in solution in data set [2] (solubility at 1 h) came to 132 µg/mL (≈ 496 µM).

As for `O=C(O)Cc1noc2ccccc12`, the IC50 in data set [1] was above 1260 µM. On to `O=C(Nc1ccc(-c2cc[nH]n2)cc1)c1ccccc1`, for which, in data set [1], the IC50 is 5.01 µM. The same molecule returned a solubility at 1 h in data set [2] of 12 µg/mL (≈ 45.6 µM). In data set [1], `NC(=O)c1sccc1-c1ccccc1` gave a concentration for half-maximal inhibition (IC50) of 158 µM. Same read-out and setting: next, `O=C(O)Cc1ccccc1C(=O)Nc1ccccc1`: 316 µM; `OCc1ccc2nsnc2c1`: above 1260 µM.

In data set [1], `Cc1c(C(=O)NC2CCCC2)sc2ncn(C)c(=O)c12` had an IC50 above 63.1 µM. On the same count and under the same terms, next, `CC1CNc2c(cccc2S(N)(=O)=O)C1` (configuration not stated): above 1260 µM.

In data set [1], `O=C(Nc1cnc(-c2cc[nH]n2)nc1)c1ccccc1` had an IC50 of 3.16 µM. The concentration in solution in data set [2] (solubility at 1 h) was 82 µg/mL (≈ 309 µM). Turning to `CS(=O)(=O)c1ccccc1C(=O)Nc1ccccc1`, the IC50 in data set [1] is 200 µM.

Consider `Cc1c(C(=O)N2CCCCC2)sc2ncn(C)c(=O)c12`, for which the IC50 in data set [1] is above 631 µM. Turning to `O=C(Nc1cncnc1)c1ccccc1`, half-maximal inhibition in data set [1] (IC50) was put at 1000 µM. The same measure, in the same setting: next, `O=C(CO)NC1CCCc2ccccc21` (configuration not stated): above 1260 µM.

Regarding `Nc1ccc(Oc2ccccc2)nn1`, it took 126 µM to reach half-maximal inhibition in data set [1] (IC50). For the molecule `CCOC(=O)Cc1ccccc1NC(=O)c1sc2nc[nH]c(=O)c2c1C`, the IC50 in data set [1] is above 63.1 µM. As to `O=C1c2ccccc2CCN1c1ccc(-c2cc[nH]n2)cc1`, the IC50 in data set [1] is 1.58 µM. For the same molecule, the solubility at 1 h in data set [2] came out at 94 µg/mL (≈ 325 µM). Turning to `Cc1cccc(NC(=O)c2sc3nc[nH]c(=O)c3c2C)c1`, in data set [1], the IC50 was above 63.1 µM.

Molecule `O=C(O)Cc1ccccc1C(=O)Nc1ccc(-c2cc[nH]n2)cc1` gave an IC50 in data set [1] of 2 µM. In data set [1], `NC(=O)c1ccc(NC(=O)c2ccc(Cl)c(Cl)c2)cc1` had an IC50 of 2.51 µM. The same measure, in the same setting: next, `NC(=O)c1ccccc1-c1ccccc1`: 158 µM; `NC(=O)NCC(O)c1ccccc1` (configuration not stated): 794 µM. On to `Cc1c(C(=O)Nc2ccccc2)sc2ncn(C)c(=O)c12`, for which, in data set [1], the IC50 was 7.94 µM. The same measure, in the same setting: next, `Cc1cc2cc(C)c(SCC(=O)O)nc2cc1C`: 0.251 µM; `Cc1ccc(NC(=O)c2sc3nc[nH]c(=O)c3c2C)cc1`: above 63.1 µM; `Cc1c(C(=O)Nc2ccon2)sc2nc[nH]c(=O)c12`: above 63.1 µM. The same measure, in the same setting: under `Cc1c(C(=O)Nc2ccccc2S(C)(=O)=O)sc2nc[nH]c(=O)c12` stands above 63.1 µM. With `NC(=O)c1ccc(NC(=O)c2ccccc2)cc1`, the IC50 in data set [1] was 50.1 µM. In data set [2], this molecule registered a solubility at 1 h of 13 µg/mL (≈ 54.1 µM). On to `CC(C)C(Sc1ncnc2ccccc12)C(=O)O` (configuration not stated), for which half-maximal inhibition in data set [1] (IC50) was put at 7.94 µM.

Molecule `O=C(Nc1ccccc1)c1ccccc1` [N-PHENYLBENZAMIDE] showed an IC50 in data set [1] above 631 µM.
